Test system: thoracic aorta ring of a Wistar rat
Experiment: Vasodilating test on phenylephrine-preconstricted aorta ring (Magnus apparatus)
Conditions: at 10 mM (printed 10 mm); aorta ring preconstricted with 1 μM phenylephrine
Protocol: The thoracic aorta of a Wistar rat was taken out, cut into 2 mm long, and made into an aorta ring. The ring was set in a Magnus apparatus (product name “micro tissue organ bath MTB-1Z”, manufactured by LABO SUPPORT CO., LTD.), and allowed to equilibrate with a constant tension. The constriction response of the aorta ring was confirmed with 50 mM KCl.
Next, the aorta ring was preliminarily constricted with 1 μM phenylephrine, and VPP and IPP prepared in Synthesis Example were added at ten-fold increasing concentrations from 10^−9 M to observe the vasodilator response through the change in tension of the aorta ring. The dose dependency of the vasodilator response was also studied.
The vasodilating test was conducted in the same way as in Example 1, except that the tripeptides VPP and IPP were replaced with amino acids, valine (Val) and proline (Pro), at the same concentration.

Compound | vasodilator response (change in tension of the aorta ring)
O=C(O)[C@@H]1CCCN1 [Pro, proline] | no vasodilator response was observed
CC(C)[C@H](N)C(=O)O [Val, valine] | no vasodilator response was observed

Reference: patent publication US20090234097A1, “VASODILATOR” (CALPIS CO., LTD., priority 2006, published 2009)
